In PubChem BioAssay (NCI) one finds GI50 and TGI data, which are given here for eight compounds.

Test systems include SW-620 colon; DU-145 prostate; M14 melanoma; LOX IMVI melanoma; MDA-MB-435; HCC-2998 colon; COLO 205 colon; HL-60(TB) leukemia; 786-0 renal; K-562 leukemia.
Common to all, as to test: NCI tumour cell line growth inhibition, 48 h

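How tested: cells in 96-well plates exposed to compound for 48 hours at five concentrations. GI50 is the concentration that inhibits growth by half. TGI: total growth inhibition.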

As for `Cn1cc(-c2cnn3c(N)c(Br)c(C4CCCNC4)nc23)cn1` (stereo not given), the GI50 in the test with SW-620 colon is 15.7 µM; with DU-145 prostate it was 3.2 µM; in the test on M14 melanoma, 0.325 µM; with LOX IMVI melanoma, 2.71 µM; in the test on MDA-MB-435, 0.754 µM; in the test with HCC-2998 colon, 1.02 µM. Moreover, the GI50 is 4.54 µM in the test with COLO 205 colon, 1.62 µM in the test on HL-60(TB) leukemia, 1.62 µM with 786-0 renal and 3.85 µM with K-562 leukemia. Moreover, the TGI with SW-620 colon is > 68.6 µM; with DU-145 prostate, 65 µM; with M14 melanoma, 16.8 µM; in the test on LOX IMVI melanoma it was 18.9 µM; in the test on MDA-MB-435, > 57.8 µM; with HCC-2998 colon, > 42.6 µM. The TGI was 19.8 µM in the test on COLO 205 colon, 35.1 µM with HL-60(TB) leukemia, 60.6 µM in the test with 786-0 renal and > 100 µM with K-562 leukemia.
For the compound `Oc1c(Cl)cc(Cl)c2ccc(Cn3cc(-c4ccc(C(F)(F)F)cc4)nn3)nc12`, the GI50 in the test on SW-620 colon is 0.493 µM; in the test on DU-145 prostate it was 1.7 µM; in the test on M14 melanoma it was 1.93 µM; with LOX IMVI melanoma, 0.299 µM; with MDA-MB-435, 1.76 µM; with HCC-2998 colon it was 5.86 µM. For the same compound, the GI50 with COLO 205 colon is 1.39 µM; with HL-60(TB) leukemia, 0.685 µM; in the test on 786-0 renal it was 1.82 µM; in the test with K-562 leukemia it was 0.479 µM. For the same compound, the TGI with SW-620 colon was 1.83 µM; in the test with DU-145 prostate, 3.33 µM; in the test on M14 melanoma, 5.26 µM; in the test with LOX IMVI melanoma, 1.11 µM; with MDA-MB-435 it was 3.75 µM; in the test on HCC-2998 colon, 20.3 µM. Besides, the TGI in the test on COLO 205 colon was 3.14 µM; in the test on HL-60(TB) leukemia, 3.65 µM; in the test on 786-0 renal it was 4.59 µM; in the test with K-562 leukemia it was > 100 µM.
In the case of `O=C(CCN1CCCCC1)N1CCc2c([nH]c3ccccc23)C1c1cccnc1` (stereo not given), the TGI in the test with SW-620 colon was > 100 µM; in the test with DU-145 prostate, > 100 µM; with M14 melanoma, 42.2 µM; in the test with LOX IMVI melanoma, > 100 µM; with MDA-MB-435, 75.1 µM; in the test with HCC-2998 colon, 54.8 µM. In addition, the TGI in the test on COLO 205 colon was 44.8 µM; in the test on HL-60(TB) leukemia, > 93.2 µM; in the test with 786-0 renal it was 82.9 µM; in the test on K-562 leukemia, 75.1 µM.
For the compound `Cc1cc(Nc2cc(N3CCN(C)CC3)nc(/C=C/c3ccccc3)n2)n[nH]1`, the GI50 in the test with SW-620 colon was 0.294 µM; in the test with DU-145 prostate it was 1.04 µM; in the test on M14 melanoma, 0.343 µM; in the test with LOX IMVI melanoma, 0.334 µM; in the test on MDA-MB-435 it was 0.406 µM; with HCC-2998 colon, 0.839 µM. Besides, the GI50 with COLO 205 colon is 0.44 µM; in the test with HL-60(TB) leukemia, 0.32 µM; in the test with 786-0 renal it was 0.789 µM; in the test with K-562 leukemia, 0.644 µM. In addition, the TGI was > 10 µM in the test with SW-620 colon; > 10 µM with DU-145 prostate; > 3.81 µM with M14 melanoma; 1.51 µM with LOX IMVI melanoma; > 5.28 µM in the test with MDA-MB-435; 4.42 µM in the test on HCC-2998 colon. For the same compound, the TGI in the test with COLO 205 colon was > 2.03 µM; in the test with HL-60(TB) leukemia, 2.57 µM; in the test on 786-0 renal it was > 6.25 µM; in the test with K-562 leukemia it was > 10 µM.
On to `Cc1cn(Cc2ccc(C34CC5CC(CC(C5)C3)C4)c(O)c2)c(=O)[nH]c1=O`, for which the GI50 in the test with SW-620 colon is 8.59 µM; with DU-145 prostate, 13.7 µM; in the test on M14 melanoma it was 11.5 µM; with LOX IMVI melanoma, 11.3 µM; in the test with MDA-MB-435 it was 2.62 µM; in the test on HCC-2998 colon it was 9.45 µM. For the same compound, the GI50 in the test on COLO 205 colon was 16.4 µM; with HL-60(TB) leukemia, 2.73 µM; with 786-0 renal it was 12.6 µM; in the test on K-562 leukemia, 2.99 µM. In addition, the TGI with SW-620 colon was 20.9 µM; in the test on DU-145 prostate, 26.6 µM; with M14 melanoma, 26.9 µM; in the test on LOX IMVI melanoma it was 23.3 µM; with MDA-MB-435, 9.02 µM; with HCC-2998 colon it was 21.4 µM. The TGI came out at 32.2 µM in the test with COLO 205 colon, 6.53 µM with HL-60(TB) leukemia, 27 µM with 786-0 renal and 11 µM in the test with K-562 leukemia.
On to `Cc1cc(-c2cc(O)ccc2Cl)cc2nnc(Nc3ccc(OCCN4CCCC4)cc3)nc12`, for which the GI50 was 0.205 µM in the test with SW-620 colon; 0.206 µM in the test with DU-145 prostate; 0.326 µM with M14 melanoma; 1.57 µM in the test with LOX IMVI melanoma; 0.175 µM in the test with MDA-MB-435; 1.94 µM in the test with HCC-2998 colon. Further, the GI50 is 2.08 µM in the test on COLO 205 colon, 0.305 µM with HL-60(TB) leukemia, 0.186 µM with 786-0 renal and 0.0443 µM with K-562 leukemia. Besides, the TGI came to 0.399 µM in the test with SW-620 colon; 0.419 µM in the test on DU-145 prostate; 1.19 µM in the test with M14 melanoma; 3.25 µM in the test on LOX IMVI melanoma; 0.321 µM in the test on MDA-MB-435; 3.66 µM in the test on HCC-2998 colon. The TGI in the test on COLO 205 colon amounted to 4.29 µM; with HL-60(TB) leukemia it was 0.627 µM; in the test with 786-0 renal, 0.343 µM; with K-562 leukemia, 0.245 µM.
Turning to `CC(=O)N1N=C(c2ccc(Nc3nc(Nc4ccc(F)cc4)nc(Nc4ccc(F)cc4)n3)cc2)CC1c1ccc(N(C)C)cc1` (stereo not given), the GI50 with SW-620 colon was 3.8 µM; with DU-145 prostate, 11.9 µM; with M14 melanoma, 2.79 µM; with LOX IMVI melanoma it was 12.2 µM; with MDA-MB-435, 3 µM; with HCC-2998 colon it was 15.9 µM. The GI50 with COLO 205 colon is 5.73 µM; in the test on HL-60(TB) leukemia, 2 µM; with 786-0 renal, 5.09 µM; in the test on K-562 leukemia, 2.69 µM. In addition, the TGI was 18.8 µM in the test on SW-620 colon; 32 µM in the test on DU-145 prostate; 9.79 µM in the test with M14 melanoma; 24.6 µM in the test on LOX IMVI melanoma; 11.1 µM in the test with MDA-MB-435; > 100 µM in the test with HCC-2998 colon. Further, the TGI amounted to 22.6 µM in the test on COLO 205 colon, 6.12 µM in the test with HL-60(TB) leukemia, 23.3 µM with 786-0 renal and 7.31 µM in the test with K-562 leukemia.
For `CC(=O)C1=C(O)C=C2Oc3c(C(=O)/C=C/c4cc(Cl)cc(Cl)c4)c(O)c(C)c(O)c3[C@]2(C)C1=O`, the GI50 was 0.527 µM in the test with SW-620 colon; 0.622 µM with DU-145 prostate; 0.567 µM in the test with M14 melanoma; 0.512 µM with LOX IMVI melanoma; 0.493 µM in the test with MDA-MB-435; 0.667 µM with HCC-2998 colon. Moreover, the GI50 with COLO 205 colon was 0.408 µM; in the test with HL-60(TB) leukemia, 0.371 µM; in the test with 786-0 renal, 0.534 µM; with K-562 leukemia, 0.497 µM. In addition, the TGI with SW-620 colon is 2.21 µM; with DU-145 prostate, 5.58 µM; in the test on M14 melanoma it was 2.28 µM; in the test on LOX IMVI melanoma, 1.79 µM; in the test with MDA-MB-435, 1.87 µM; in the test with HCC-2998 colon, 2.69 µM. In addition, the TGI with COLO 205 colon was determined as 0.988 µM; in the test on HL-60(TB) leukemia, 0.87 µM; in the test with 786-0 renal it was 2.32 µM; in the test on K-562 leukemia it was 15 µM.
